Key:
Assay in all cases: cells
[1] = system: MDA-MB-231 cells (breast adenocarcinoma); details: for TGI: total cell growth inhibition; for TGI / CC50: 72 hours; for CC50: read-out: LC50, 50% net cell killing
Text: (§1) The aim of this assay is to evaluate the in vitro cytostatic (ability to delay or arrest tumor cell growth) or cytotoxic (ability to kill tumor cells) activity of the samples being tested.
(§2) A colorimetric assay, using sulforhodamine B (SRB) reaction has been adapted to provide a quantitative measurement of cell growth and viability (following the technique described by Skehan et al. J. Natl. Cancer Inst. 1990, 82, 1107-1112). Another colorimetric assay based on 3-(4,5-Dimethylthiazol-2-yl)-2,5-diphenyltetrazolium bromide (MTT) reduction to a purple formazan has been also used to assess the antiproliferative activity (following the technique described by Mosmann et al. J. Immunol. Meth. 1983, 65, 55-63).
(§3) These forms of assays employ 96-well cell culture microplates following the standards of the American National Standards Institute and the Society for Laboratory Automation and Screening (ANSI SLAS 1-2004 (R2012) Oct. 12, 2011. All the cell lines used in this study were obtained from the American Type Culture Collection (ATCC) and derive from different types of human cancer.
(§4) A549, HT29, MDA-MB-231 and PSN1 cells were maintained in Dulbecco's Modified Eagle Medium (DMEM) while PC-3 and 22Rv1 cells were maintained in Roswell Park Memorial Institute Medium (RPMI). All cell lines were supplemented with 10% Fetal Bovine Serum (FBS), 2 mM L-glutamine, 100 U/mL penicillin, and 100 […] at 37° C., 5% CO2 and 98% humidity. For the experiments, cells were harvested from subconfluent cultures using trypsinization and resuspended in fresh medium before counting and plating.
(§5) A549, HT29, MDA-MB-231 and PSN1 cells were seeded in 96 well microtiter plates, at 5000 cells per well in aliquots of 150 μL, and allowed to attach to the plate surface for 18 hours (overnight) in drug free medium. After that, one control (untreated) plate of each cell line was fixed (as described below) and used for time zero reference value. Culture plates were then treated with test compounds (50 μL aliquots of 4× stock solutions in complete culture medium plus 4% DMSO) using ten ⅖ serial dilutions (concentrations ranging from 10 to 0.003 μg/mL) and triplicate cultures (1% final concentration in DMSO). After 72 hours treatment, the antitumor effect was measured by using the SRB methodology: Briefly, cells were washed twice with PBS, fixed for 15 min in 1% glutaraldehyde solution at room temperature, rinsed twice in PBS, and stained in 0.4% SRB solution for 30 min at room temperature. Cells were then rinsed several times with 1% acetic acid solution and air-dried at room temperature.
(§6) Effects on cell growth and survival were estimated by applying the NCI algorithm (Boyd M R and Paull K D. Drug Dev. Res. 1995, 34, 91-104). The values obtained in triplicate cultures were fitted by nonlinear regression to a four-parameters logistic curve by nonlinear regression analysis.

[2] = system: A549 cells (lung carcinoma, NSCLC); details: A549, SRB; for GI50: 72 hours treatment; for TGI: total cell growth inhibition; for TGI / CC50: 72 hours; for CC50: read-out: LC50, 50% net cell killing
Text: as §1, §2, §3, §4, §5, §6

[3] = system: HT29 cells (colorectal adenocarcinoma); details: HT29, SRB; for TGI: total cell growth inhibition; for TGI / CC50: 72 hours; for CC50: read-out: LC50, 50% net cell killing; for GI50: 72 hours treatment
Text: as §1, §2, §3, §4, §5, §6

[4] = system: PSN1 cells (pancreas adenocarcinoma); details: PSN1, SRB; for GI50: 72 hours treatment; for TGI: total cell growth inhibition; for TGI / CC50: 72 hours; for CC50: read-out: LC50, 50% net cell killing
Text: as §1, §2, §3, §4, §5, §6

[5] = MDA-MB-231, 72 hours treatment, SRB

SMILES	GI50 [1, 5] [nM]	TGI ([1]; MDA-MB-231, SRB) [Molar]	CC50 ([1]; MDA-MB-231, SRB) [nM]	GI50 [2] [nM]	TGI [2] [Molar]	CC50 [2] [nM]	TGI [3] [Molar]	CC50 [3] [nM]	GI50 [4] [nM]	TGI [4] [Molar]	CC50 [4] [nM]	GI50 [3] [nM]	GI50 ([1]; Homo sapiens, MDA-MB-231, 72 h) [nM]
COc1c(C)cc2c(c1O)[C@@H]1[C@@H]3[C@@H]4SC[C@]5(N[C@H](C)Cc6c5[nH]c5ccccc65)C(=O)OC[C@@H](c5c6c(c(C)c(OC(C)=O)c54)OCO6)N3[C@@H](C#N)[C@H](C2)N1C [A, reference compound]	7.07	9.38E−09	14.1	8.36	8.87E−09	> 129	8.36E−09	> 129	12.9	1.54E−08	19.3	–	–
COc1c(C)cc2c(c1O)[C@@H]1[C@@H]3[C@@H]4SC[C@]5(N[C@@H](C)Cc6c5[nH]c5ccccc65)C(=O)OC[C@@H](c5c6c(c(C)c(OC(C)=O)c54)OCO6)N3[C@@H](C#N)[C@H](C2)N1C [B, reference compound]	9	1.67E−08	34.7	20.6	2.19E−08	> 129	9.13E−09	> 129	19.3	2.06E−08	23.1	8.48	–
COc1c(C)cc2c(c1O)[C@@H]1[C@@H]3[C@@H]4SC[C@]5(N[C@@H](CO)Cc6c5[nH]c5ccccc65)C(=O)OC[C@@H](c5c6c(c(C)c(OC(C)=O)c54)OCO6)N3[C@@H](C#N)[C@H](C2)N1C [Compound 3-R]	–	5.04E−10	1.25	403	5.79E−10	> 126	>1.26E−07	> 126	0.39	6.05E−10	> 126	–	–
COc1c(C)cc2c(c1O)[C@@H]1[C@@H]3[C@@H]4SC[C@]5(N[C@H](COC(C)=O)Cc6c5[nH]c5ccccc65)C(=O)OC[C@@H](c5c6c(c(C)c(OC(C)=O)c54)OCO6)N3[C@@H](C#N)[C@H](C2)N1C [Compound 3a-S]	2.87	3.59E−09	4.9	3.11	3.23E−09	> 120	3.23E−09	> 120	2.15	3.59E−09	12	2.99	–
C=CCOC(=O)NC[C@H]1Cc2c([nH]c3ccccc23)[C@@]2(CS[C@@H]3c4c(OC(C)=O)c(C)c5c(c4[C@H](COC2=O)N2[C@@H]3[C@H]3c4c(cc(C)c(OC)c4O)C[C@@H]([C@@H]2C#N)N3C)OCO5)N1 [Compound 10-R]	–	–	–	–	–	–	>1.14E−07	> 114	–	–	–	–	–
COc1c(C)cc2c(c1O)[C@@H]1[C@@H]3[C@@H]4SC[C@]5(N[C@@H](CN)Cc6c5[nH]c5ccccc65)C(=O)OC[C@@H](c5c6c(c(C)c(OC(C)=O)c54)OCO6)N3[C@@H](C#N)[C@H](C2)N1C [Compound 11-R]	–	–	–	1.77	4.54E−09	> 126	>1.26E−07	> 126	1.39	1.89E−09	> 126	1.39	–
COc1c(C)cc2c(c1O)[C@@H]1[C@@H]3[C@@H]4SC[C@]5(N[C@H](CN)Cc6c5[nH]c5ccccc65)C(=O)OC[C@@H](c5c6c(c(C)c(OC(C)=O)c54)OCO6)N3[C@@H](C#N)[C@H](C2)N1C [Compound 11-S]	–	–	–	–	–	> 126	>1.26E−07	> 126	–	–	–	–	–
COc1c(C)cc2c(c1O)[C@@H]1[C@@H]3[C@@H]4SC[C@]5(N[C@H](C(=O)O)Cc6c5[nH]c5ccccc65)C(=O)OC[C@@H](c5c6c(c(C)c(OC(C)=O)c54)OCO6)N3[C@@H](C#N)[C@H](C2)N1C [Compound 14-S, reference compound]	54.5	1.13E−07	> 124	> 124	>1.24E−07	> 124	>1.24E−07	> 124	> 124	>1.24E−07	> 124	121	–
COc1ccc2[nH]c3c(c2c1)C[C@H](CO)N[C@]31CS[C@@H]2c3c(OC(C)=O)c(C)c4c(c3[C@H](COC1=O)N1[C@@H]2[C@H]2c3c(cc(C)c(OC)c3O)C[C@@H]([C@@H]1C#N)N2C)OCO4 [Compound 18-R]	–	1.34E−09	1.46	–	1.34E−09	–	1.34E−09	–	0.57	1.06E−09	–	–	–
COc1ccc2[nH]c3c(c2c1)C[C@@H](CO)N[C@]31CS[C@@H]2c3c(OC(C)=O)c(C)c4c(c3[C@H](COC1=O)N1[C@@H]2[C@H]2c3c(cc(C)c(OC)c3O)C[C@@H]([C@@H]1C#N)N2C)OCO4 [Compound 18-S]	–	1.34E−09	1.58	1.7	3.03E−09	–	1.34E−09	–	0.959	1.34E−09	–	–	–
C=CCOC(=O)NC[C@H]1Cc2c([nH]c3ccc(OC)cc23)[C@@]2(CS[C@@H]3c4c(OC(C)=O)c(C)c5c(c4[C@H](COC2=O)N2[C@@H]3[C@H]3c4c(cc(C)c(OC)c4O)C[C@@H]([C@@H]2C#N)N3C)OCO5)N1 [Compound 25-R]	–	2.54E−09	8.38	1.32	2.43E−09	9.92	2.76E−09	> 110	–	2.32E−09	6.73	1.54	–
C=CCOC(=O)NC[C@@H]1Cc2c([nH]c3ccc(OC)cc23)[C@@]2(CS[C@@H]3c4c(OC(C)=O)c(C)c5c(c4[C@H](COC2=O)N2[C@@H]3[C@H]3c4c(cc(C)c(OC)c4O)C[C@@H]([C@@H]2C#N)N3C)OCO5)N1 [Compound 25-S]	5.84	9.04E−09	15.4	7.17	7.61E−09	> 110	7.72E−09	> 110	6.84	9.26E−09	14.3	7.17	–
COc1ccc2[nH]c3c(c2c1)C[C@H](CN)N[C@]31CS[C@@H]2c3c(OC(C)=O)c(C)c4c(c3[C@H](COC1=O)N1[C@@H]2[C@H]2c3c(cc(C)c(OC)c3O)C[C@@H]([C@@H]1C#N)N2C)OCO4 [Compound 26-R]	1.17	1.22E−09	1.46	1.94	3.40E−09	> 122	1.58E−09	> 122	0.972	1.70E−09	3.52	0.729	–
COc1ccc2[nH]c3c(c2c1)C[C@@H](CN)N[C@]31CS[C@@H]2c3c(OC(C)=O)c(C)c4c(c3[C@H](COC1=O)N1[C@@H]2[C@H]2c3c(cc(C)c(OC)c3O)C[C@@H]([C@@H]1C#N)N2C)OCO4 [Compound 26-S]	1.34	1.94E−09	3.89	11.2	2.19E−08	> 122	3.16E−09	> 122	3.04	3.28E−09	3.52	2.79	–
C=CCOC(=O)NC[C@@H]1Cc2c(oc3ccccc23)[C@@]2(CS[C@@H]3c4c(OC(C)=O)c(C)c5c(c4[C@H](COC2=O)N2[C@@H]3[C@H]3c4c(cc(C)c(OC)c4O)C[C@@H]([C@@H]2C#N)N3C)OCO5)N1 [Compound 45-S]	–	–	–	–	–	–	–	–	–	–	–	–	11.7
